Here are results for 1 compound from ChEMBL document CHEMBL1147373, “Patagonicol: a diterpenoid from the Chinese soft coral Alcyonium patagonicum” (J Nat Prod, 1993).

One assay has as its system P388. The assay can be described thus: Cytotoxicity against mouse P388 cells. It is filed as functional, cell-based.
In the next assay the test system is Candida albicans. As to the kind of experiment: Antifungal activity against Candida albicans. It is filed as functional, organism-based.

Active and inactive are the calls of the source. The calls are words filed in the database; no cut-off is given here.

For `C=C1CC[C@H](C(C)C)[C@@H]2[C@H]1[C@H]1C[C@](C)(O)[C@@H](OCC)CC[C@@](C)(O)[C@@H]2O1`, the result in the assay with P388 and in the assay with Candida albicans was inactive.
